# Where two headings read alike, the source gives them in different places.
# Tests used:
# micro-tom tomato plants [1] = format: in vivo
# Experimental: The Percival chambers were used to mimic environmental conditions.
# (§1) All plants received 75 mL right after dose application. […] Death plants were removed from the study.
# (§2) At day 48 of the plant cycle, groups correspondent to the drought condition had all the water removed from the tray and were kept in the chamber. Plants under normal conditions had regularly water exchange two times a week until the end of the plant cycle. All plants were closely monitored, and visible observations were recorded, including measurements of plant height, number of leaves, branches, flower buds, flowers, and tomatoed were taken regularly. Clay and fertilizer were applied as needed and dead plants were removed from the study.
# The harvest day was determined by the abundant number of red tomatoes: plant measurements were performed as described above. Plants were removed from their pots and clay was washed out of the roots. Tomatoes were harvested, photographed, and measured (diameter, height and mass). Individual plants were also photographed. Root and plant length was recorded, and plant mass was measured using a scale.
# micro-tom tomato plants [2] = conditions: for percent plant growth (plant height) during dosage window: FIG. 9A
# Experimental: Exogenous application of salicylic acid favors plants under stress by regulating processes such as photosynthesis, membrane permeability, nutrient uptake, transpiration, and the activity of antioxidant enzymes. […] Final measurements of plant height, water content, root length, and tomato production yield were also performed.
# Micro-tom was germinated from seeds under hydroponic conditions and grown under vertical farming conditions. Soilless clay media was used, and smart fertilizer was applied. Plants were incubated under normal conditions for 16 days. Seedlings were then transplanted using pre-wet clay and incubated under normal conditions in Percival chambers with abundant water supply and regular water exchanges for an additional 34 days. The Percival chambers were used to mimic environmental conditions. The day and night cycles were set for 16 hour (day) at 25° C. followed by 8 hour (night) at 25° C. CO2 levels were maintained at 410 ppm with 70% relative humidity.
# Each plant was labeled, and initial measurements were taken including plant height, total number of leaves, branches, and total number of flower buds, flowers and tomatoes if applicable. Individual group pictures were taken as visual record and first dose was applied accordantly to the group's requirements and schedules (FIG. 7). Dose regimen was similar between all groups with a total duration of 7 days (Dosage Window). Doses were applied at days 0, 2 and 4 of the dosage window. Remaining water in the group trays were removed right before dose applications. Chemicals were applied as a powder directly in the clay surface avoiding contact with the plant. All plants received 75 mL right after dose application. At day 7, remaining water in the trays were removed, final plants measurements and visual observation was recorded. Death plants were removed from the study. Extra clay and fertilizer were added, and DI-water was applied to all plants: 150 mL to normal plants and 50 mL to drought plants to activate the fertilizer.
# micro-tom tomato plants [3] = assay: Treatment window under drought stress conditions (water supply removed); format: in vivo; conditions: for first death under drought: FIG. 12
# Experimental: Plants were incubated under normal conditions for 16 days. […] The Percival chambers were used to mimic environmental conditions.
# as §1
# as §2, with “The treatment window corresponds to the period of time where the groups were exposed to either normal conditions with abundant water supply or to intense drought stress conditions where the water supply was completely removed until plants were found dead. At” for “At”
# [4] = 3x: three dosages of 0.05 mmol SA
structure (smiles),measurement,setting,value
"O=C(O)c1ccccc1O [SA, salicylic acid]",plants dead at time of harvest,"micro-tom tomato plants [1]; 1x, across the study, FIG. 15",three
same,total number of red tomatoes per group,"micro-tom tomato plants [1]; 1x, harvest day, FIG. 19B",least number of red tomatoes
same,percent plant growth after 14 days,"micro-tom tomato plants [1]; 1x, normal conditions, FIG. 10A",lowest percent growth
same,variation of number of branches during the treatment window,"micro-tom tomato plants [1]; 1x, normal conditions, FIG. 13B",highest variation
same,roots holding the clay after removal from the pot,"micro-tom tomato plants [1]; 3x, harvest",stronger at holding the clay in place
same,total number of tomatoes per group,"micro-tom tomato plants [1]; 3x, harvest day, compared with DI water, FIG. 19A",similar
same,percent plant growth (plant height) during dosage window,micro-tom tomato plants [2]; 1x: single dose 0.15 mmol SA or equivalent,negligible
same,variation in the number of branches during dosage window,"micro-tom tomato plants [2]; 1x: single dose 0.15 mmol, FIG. 9B",decrease
same,stress and deaths after the dosage window,"micro-tom tomato plants [2]; 1x: single powder dose, 0.15 mmol SA (or equivalent in polymer) per plant, FIG. 8",more harmful
same,percent plant growth (plant height) during dosage window,micro-tom tomato plants [2]; [4],smaller than the DI-water control group
same,stress caused during dosage window,"micro-tom tomato plants [2]; 3x: three dosages of 0.05 mmol SA, compared with SA 1x",less significative
same,plants mortality right after treatment,micro-tom tomato plants [2]; compared with SAPAE,higher
same,first death under drought,"micro-tom tomato plants [3]; 1x: single dose 0.15 mmol SA or equivalent, day of treatment window",17 days
same,first death under drought,micro-tom tomato plants [3]; [4],20 days
same,flower production under drought stress,"micro-tom tomato plants [3]; 3x, 14 days treatment time point, flower buds, no opened flowers, FIG. 11",second-best group
